Assays:
[1] = In vitro cytotoxicity (CCK-8) in HepG2.2.15 cells; type: cell-based; conditions: human
Method: A bottle of HepG2.2.15 or HepAD38 cells in good exponential growth state was taken, washed once by adding 5 mL PBS, and then thereto was added 3 mL trypsin. The sample was digested in a cell culture incubator, and taken out from time to time and observed under a microscope. When the cells just fell off, 1 mL trypsin was discarded. The residual liquid was placed in a cell culture incubator at 37° C. and digested for 8-15 min. The cells were taken out and observed under a microscope (whether the cells were individually round and there was no adhesion between the cells). 5 mL MEM medium was added for cell resuspension. The cells were then subjected to cell counting with a cell counter, diluted with a complete medium, and adjusted to a cell density of 2*10^5 cells/mL. Then the cells were seeded at 100 μL/well in a 96-well plate with a multi-channel pipette (the 96-well plate was coated with 50 μg/mL Collagen I solution in advance), and cultured in a constant temperature CO2 incubator for 24 h. The cells were treated by drug administration, and fresh medium containing the compound was used to replace the spent medium every 3 days. To control wells was added a drug-free medium containing 0.5% DMSO, and a control well containing a common medium was set up. 6 days after the administration, CCK-8 was added at 10 μL/well. After 1 to 2 hours, the absorbance was detected with microplate reader at 450 nm, and the inhibition rate and the CC50 were calculated.

[2] = target: CYP2C19 (Homo sapiens (Human), UniProt P33261); experiment: CYP450 enzyme inhibition study (liver microsomes, subtype IC50); type: in vitro ADME; conditions: 30 minutes, read-out: Subtypes IC50 2C19
Chain of CYP2C19 (P33261 whole entry): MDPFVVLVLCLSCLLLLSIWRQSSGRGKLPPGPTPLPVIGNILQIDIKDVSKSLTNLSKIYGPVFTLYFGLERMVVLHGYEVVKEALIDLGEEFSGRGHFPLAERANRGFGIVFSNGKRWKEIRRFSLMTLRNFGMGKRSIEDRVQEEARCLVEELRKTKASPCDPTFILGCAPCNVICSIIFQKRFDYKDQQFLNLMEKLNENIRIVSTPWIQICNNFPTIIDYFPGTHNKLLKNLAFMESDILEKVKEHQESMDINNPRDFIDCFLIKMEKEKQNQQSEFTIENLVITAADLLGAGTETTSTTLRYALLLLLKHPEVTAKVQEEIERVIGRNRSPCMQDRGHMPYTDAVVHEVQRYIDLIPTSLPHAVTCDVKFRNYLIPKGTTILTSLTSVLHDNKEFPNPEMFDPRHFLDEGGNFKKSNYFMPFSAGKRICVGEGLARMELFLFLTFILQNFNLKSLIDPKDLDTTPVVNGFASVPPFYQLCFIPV
Method: (§1) 500 μL of a final incubation system contains 50 μL of liver microsomes (protein concentration: 0.2 mg/mL), 1 μL of mixed CYP450 specific substrates (CYP1A2, CYP 2B6, CYP 2C9, CYP2C19, CYP 2D6, and CYP 3A4), 398 μL PBS buffer (PH7.4), 1 μL specific positive inhibitor (positive control group) or the test compound (formulated with acetonitrile), and 50 μL NADPH+MgCl2. Duplicate incubation systems of 0.5 mL each were formulated for each CYP450 subtype. A total volume of 450 μL of a uniformly mixed solution of the substrate and the enzyme was formulated in each tube, and the solution and NADPH were pre-incubated at 37° C. for 5 minutes, respectively. Then 50 μL of the mixed solution of NADPH+MgCl2 was added for reaction. 50 μL of the reaction solution was taken out at 30 minutes, and the reaction was terminated with 300 μL of ice acetonitrile containing an internal standard. In addition, two control groups of 500 μL each without NADPH were prepared in parallel as a negative control group.
(§2) Sample pre-treatment: To 50 μL of the incubated sample was added 300 μL of ice acetonitrile containing an internal standard, and then precipitated. After vortexing for 5 minutes, the sample was centrifugated (12000 rpm, 4° C.) for 10 minutes. 75 μL of the supernatant was pipetted, and 75 μL of ultrapure water was added thereto for dilution and mixed uniformly. 1 μL of the resulting solution was injected for analysis.

[3] = target: CYP 3A4 (Homo sapiens (Human), UniProt P08684); experiment: as above; type: in vitro ADME; conditions: 30 minutes, read-out: Subtypes IC50 3A4
Chain of CYP 3A4 (P08684 whole entry): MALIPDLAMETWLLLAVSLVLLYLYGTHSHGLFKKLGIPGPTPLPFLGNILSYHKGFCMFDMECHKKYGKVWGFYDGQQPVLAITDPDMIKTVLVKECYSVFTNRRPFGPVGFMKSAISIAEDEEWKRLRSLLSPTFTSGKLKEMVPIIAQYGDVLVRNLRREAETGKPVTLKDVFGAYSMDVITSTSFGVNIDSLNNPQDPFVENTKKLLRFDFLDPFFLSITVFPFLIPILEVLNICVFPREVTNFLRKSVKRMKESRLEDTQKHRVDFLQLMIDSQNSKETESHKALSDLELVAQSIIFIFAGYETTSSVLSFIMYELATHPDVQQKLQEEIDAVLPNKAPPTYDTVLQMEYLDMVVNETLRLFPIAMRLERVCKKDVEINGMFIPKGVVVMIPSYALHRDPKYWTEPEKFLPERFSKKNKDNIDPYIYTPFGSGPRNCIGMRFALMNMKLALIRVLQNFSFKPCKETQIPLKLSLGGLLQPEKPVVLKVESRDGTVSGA
Method: as §1, §2

[4] = In vivo pharmacokinetics (PK) study in mice; conditions: ICR mice, po 30 mg/kg
Method: ICR mice, weighing 18-20 g, were randomly divided into groups of three mice each after 3 to 5 days' acclimatization, and a series of the compounds were administered intragastrically to each group at a dose of 30 mg/kg. The test animals (ICR mice) were fasted for 12 hours before the administration and fed 4 hours after the administration. They were free to access water before and after the experiment. After the intragastric administration, about 0.1 mL of blood was collected from the orbits. Within 30 minutes after anticoagulation with EDTA-K2, the plasma was separated by centrifugation at 4° C. and 4000 rpm for 10 minutes. Immediately after collecting all plasma, it was stored at −20° C. for testing. 20 μL of the plasma sample to be tested and standard curve sample were pipetted, and then thereto was added 200 μL of an acetonitrile solution containing an internal standard (diazepam 20 mg/mL). The resulting mixture was oscillated and mixed uniformly for 5 min, and then centrifugated at 12000 rpm for 10 min. 75 μL supernatant was pipetted, and 75 μL ultrapure water was added thereto for dilution, and mixed evenly. 1 μL of the resulting solution was pipetted for LC/MS/MS determination.

[5] = Stability of rat liver microsomes in vitro; type: in vitro ADME
Method: 300 μL of a final incubation system contains 30 μL of liver microsomes (protein concentration: 0.15 mg/mL), 30 μL NADPH+MgCl2, 3 μL substrate (formulated with acetonitrile), and 237 μL PBS buffer. Duplicate incubation systems of 0.3 mL each were formulated for each species. A total volume of 270 μL of a uniformly mixed solution of the substrate and the enzyme was formulated in each tube, the solution and NADPH were pre-incubated at 37° C. for 5 minutes, respectively. Then 30 μL of the mixed solution of NADPH+MgCl2 was added for reaction. 50 μL of the reaction solution was taken out at 0, 10, 30, and 60 mins, and the reaction was terminated with 300 μL of ice acetonitrile containing an internal standard.
Sample pre-treatment: To 50 μL of the incubated sample was added 300 μL of ice acetonitrile containing diazepam as an internal standard and then precipitated. After vortexing for 5 minutes, the sample was centrifugated (12000 rpm, 4° C.) for 10 minutes. 75 μL of the supernatant was pipetted into a 96-well plate, and then diluted with 75 μL ultrapure water and mixed uniformly. 0.5 μL of the resulting solution was injected and analyzed by LC-MS/MS.

[6] = In vivo pharmacokinetics (PK) study in rats; set-up: species or system SD rats
Method: SD rats, weighing 180˜220 g, were randomly divided into groups of three […] each after 3 to 5 days' acclimatization, and a series of the compounds were administered intragastrically to each group at a dose of 20 mg/kg.
The test animals (SD rats) were fasted for 12 hours before administration and fed 4 hours after the administration. They were free to access water before and after the experiment.
After the administration, about 0.2 mL of blood from the orbits was collected at 0 min, 15 min, 30 min, 1 h, 2 h, 4 h, 6 h, 8 h, 10 h, 24 h, 30 h, and 48 h. Within 30 minutes after anticoagulation with EDTA-K2, the plasma was separated by centrifugation at 4° C. and 4000 rpm for 10 minutes. Immediately after collecting all plasma, it was stored at −20° C. for testing.
50 μL of the plasma sample to be tested and standard curve sample were pipetted, and then thereto was added 500 μL of an acetonitrile solution containing an internal standard (diazepam 20 mg/mL). The resulting mixture was oscillated and mixed uniformly for 5 min, and then centrifugated at 12000 rpm for 10 min. 75 μL supernatant was pipetted, and 75 μL ultrapure water was added thereto for dilution, and mixed evenly. 1 μL of the resulting solution was pipetted for LC/MS/MS determination.

[7] = rat, plasma, SD rats, PO 20 mg/kg

SMILES | CC50 at 6 days [1] [µM] | IC50 [2] [µM] | IC50 [3] [µM] | Liver AUC(0-8 h) ([4]; 0.25 h, 3 h, 8 h) [ng/g] | Plasma AUC(0-8 h) ([4]; blood at 0.25 h, 3 h, 8 h) [ng/mL] | Kp ([4]; mouse, liver/blood, AUC(0-8 h), read-out: Liver to blood ratio) | Remaining (%) at 60 min [5] [%] | F ([6]; SD rats, PO 20 mg/kg vs IV 5 mg/kg) [%] | half-life ([6]; SD, rat, in vivo, po, 20 mg/kg) [h] | AUC(0-inf) [6, 7] [ng·h/mL] | Cmax [6, 7] [ng/mL] | AUC(0-t) ([6]; rat, plasma, SD rats, PO 20 mg/kg, read-out: AUC(0-48 h)) [ng·h/mL]
Cc1c(C(=O)Nc2ccc(F)c(C#N)c2)c(C)n(C)c1C(=O)C(=O)NC1(C(F)(F)F)COC1 [Example 25, N-(3-cyano-4-fluorophenyl)-1,2,4-trimethyl-5-(2-oxo-2-((3-(trifluoromethyl)oxetan-3-yl)amino)acetyl)-1H-pyrrole-3-carboxamide] | > 100 | 24.9 | 76 | 315435 | 37732 | 8.36 | 52.0 | – | – | – | – | –
Cc1c(C(=O)Nc2ccc(F)c(C#N)c2)c(C)n(C)c1C(=O)C(=O)N[C@@H](C)C(F)(F)F [Example 12] | > 100 | 60 | > 200 | – | – | – | 65.0 | 57 | 3.65 | 62300 | 5020 | 62000
